Measured values as given in ChEMBL document CHEMBL1134795 (J Med Chem, 2001).

Organism: Homo sapiens
Test: Inhibition of human platelet (isolated from PRP) aggregation
Format: functional
Conditions: not given

IC50 | SMILES
40 nM | CC1(c2ccc(C(=N)N)cc2)NC(=O)N(CC(=O)N[C@@H](CC(=O)O)C(=O)N[C@H](C(=O)O)c2ccccc2)C1=O (stereo in doubt; 16)
800 nM | CC1(c2ccc(C(=N)N)cc2)NC(=O)N(CC(=O)N[C@@H](CC(=O)O)C(=O)N[C@H](C(=O)O)c2ccccc2)C1=O (stereo in doubt; 17)

Same assay, conditions: Homo sapiens

IC50 | SMILES
200 nM | N=C(N)c1ccc(CC2NC(=O)N(CC(=O)N[C@@H](CC(=O)O)C(=O)N[C@H](C(=O)O)c3ccccc3)C2=O)cc1 (stereo partly drawn)
1000 nM | CC(C)[C@H](NC(=O)[C@H](CC(=O)O)NC(=O)CN1C(=O)N[C@@H](CCCN=C(N)N)C1=O)C(=O)O
3000 nM | CC(C)C[C@H](NC(=O)[C@H](CC(=O)O)NC(=O)CN1C(=O)N[C@@H](CCCN=C(N)N)C1=O)C(=O)O
70 nM | COC(=O)[C@@H](NC(=O)[C@H](CC(=O)O)NC(=O)CN1C(=O)NC(C)(c2ccc(C(=N)N)cc2)C1=O)c1ccccc1 (stereo partly drawn)
150 nM | N=C(N)c1ccc(/C=C2/NC(=O)N(CC(=O)N[C@@H](CC(=O)O)C(=O)N[C@H](C(=O)O)c3ccccc3)C2=O)cc1
1500 nM | N=C(N)NCCC[C@@H]1NC(=O)N(CC(=O)N[C@@H](CC(=O)O)C(=O)N[C@H](C(=O)O)C2CCCCC2)C1=O
5500 nM | N=C(N)Nc1ccc(CC2NC(=O)N(CC(=O)N[C@@H](CC(=O)O)C(=O)N[C@H](C(=O)O)c3ccccc3)C2=O)cc1 (stereo partly drawn)
25 nM | CC1(c2ccc(C(=N)N)cc2)NC(=O)N(CC(=O)N[C@@H](CC(=O)O)C(=O)NC2C3CC4CC(C3)CC2C4)C1=O (stereo partly drawn)
500 nM | CCN1C(=O)N(CC(=O)NC(CC(=O)O)c2ccccc2)C(=O)C1(C)c1ccc(C(=N)N)cc1 (stereo not drawn)
300 nM | CC1(c2ccc(C(=N)N)cc2)NC(=O)N(CC(=O)NCC(NC(=O)OCc2ccccc2)C(=O)O)C1=O (stereo not drawn)
20 nM | N=C(N)c1ccc(C2(C3CC3)NC(=O)N(CC(=O)N[C@@H](CC(=O)O)C(=O)N[C@H](C(=O)O)c3ccccc3)C2=O)cc1 (stereo partly drawn)
150 nM | CC1(c2ccc(NC(=N)N)cc2)NC(=O)N(CC(=O)N[C@@H](CC(=O)O)C(=O)N[C@H](C(=O)O)c2ccccc2)C1=O (stereo partly drawn)
200 nM | N=C(N)Nc1ccc(C2NC(=O)N(CC(=O)N[C@@H](CC(=O)O)C(=O)N[C@H](C(=O)O)c3ccccc3)C2=O)cc1 (stereo partly drawn)
150 nM | CC1(c2ccc(CN)cc2)NC(=O)N(CC(=O)N[C@@H](CC(=O)O)C(=O)N[C@H](C(=O)O)c2ccccc2)C1=O (stereo partly drawn)
6000 nM | N=C(N)Nc1cccc(C2NC(=O)N(CC(=O)N[C@@H](CC(=O)O)C(=O)N[C@H](C(=O)O)c3ccccc3)C2=O)c1 (stereo partly drawn)
10000 nM | N=C(N)NCCC[C@@H]1NC(=O)N(CC(=O)N[C@@H](CC(=O)O)C(=O)N[C@@H](Cc2ccccc2)C(=O)O)C1=O
25 nM | CCC1(c2ccc(C(=N)N)cc2)NC(=O)N(CC(=O)N[C@@H](CC(=O)O)C(=O)N[C@H](C(=O)O)c2ccccc2)C1=O (stereo partly drawn)
50 nM | N=C(N)c1ccc(C2(Cc3ccccc3)NC(=O)N(CC(=O)N[C@@H](CC(=O)O)C(=O)N[C@H](C(=O)O)c3ccccc3)C2=O)cc1 (stereo partly drawn)

Target: T1, Integrin alpha-IIb/beta-3 (Homo sapiens, UniProt P05106+P08514)
Test: Inhibition of 125 I-fibrinogen binding to glycoprotein IIb/IIIa receptor
Format: protein-complex assay
Conditions: not given

T1 sequence (P05106 27-788 limits assumed): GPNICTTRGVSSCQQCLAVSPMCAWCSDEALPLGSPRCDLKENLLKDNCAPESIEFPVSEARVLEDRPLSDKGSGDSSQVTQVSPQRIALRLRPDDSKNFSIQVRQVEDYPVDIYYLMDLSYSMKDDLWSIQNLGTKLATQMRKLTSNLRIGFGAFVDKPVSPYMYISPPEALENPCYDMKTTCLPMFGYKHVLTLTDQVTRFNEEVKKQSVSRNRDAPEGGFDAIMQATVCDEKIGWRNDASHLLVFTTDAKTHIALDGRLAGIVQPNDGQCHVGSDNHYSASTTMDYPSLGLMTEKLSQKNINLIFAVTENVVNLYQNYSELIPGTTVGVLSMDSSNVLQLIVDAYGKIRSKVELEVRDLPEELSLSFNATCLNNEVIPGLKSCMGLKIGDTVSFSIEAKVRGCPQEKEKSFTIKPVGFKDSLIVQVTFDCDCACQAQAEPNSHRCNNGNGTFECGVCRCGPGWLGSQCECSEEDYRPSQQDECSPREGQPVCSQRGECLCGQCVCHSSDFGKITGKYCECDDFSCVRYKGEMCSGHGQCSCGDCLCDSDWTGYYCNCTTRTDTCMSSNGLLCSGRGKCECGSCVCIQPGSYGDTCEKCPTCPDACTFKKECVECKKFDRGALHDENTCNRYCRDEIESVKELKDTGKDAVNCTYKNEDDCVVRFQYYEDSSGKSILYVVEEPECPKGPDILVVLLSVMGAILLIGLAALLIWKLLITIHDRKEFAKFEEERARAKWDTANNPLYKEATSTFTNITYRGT
T1 sequence (P08514 32-887 limits assumed): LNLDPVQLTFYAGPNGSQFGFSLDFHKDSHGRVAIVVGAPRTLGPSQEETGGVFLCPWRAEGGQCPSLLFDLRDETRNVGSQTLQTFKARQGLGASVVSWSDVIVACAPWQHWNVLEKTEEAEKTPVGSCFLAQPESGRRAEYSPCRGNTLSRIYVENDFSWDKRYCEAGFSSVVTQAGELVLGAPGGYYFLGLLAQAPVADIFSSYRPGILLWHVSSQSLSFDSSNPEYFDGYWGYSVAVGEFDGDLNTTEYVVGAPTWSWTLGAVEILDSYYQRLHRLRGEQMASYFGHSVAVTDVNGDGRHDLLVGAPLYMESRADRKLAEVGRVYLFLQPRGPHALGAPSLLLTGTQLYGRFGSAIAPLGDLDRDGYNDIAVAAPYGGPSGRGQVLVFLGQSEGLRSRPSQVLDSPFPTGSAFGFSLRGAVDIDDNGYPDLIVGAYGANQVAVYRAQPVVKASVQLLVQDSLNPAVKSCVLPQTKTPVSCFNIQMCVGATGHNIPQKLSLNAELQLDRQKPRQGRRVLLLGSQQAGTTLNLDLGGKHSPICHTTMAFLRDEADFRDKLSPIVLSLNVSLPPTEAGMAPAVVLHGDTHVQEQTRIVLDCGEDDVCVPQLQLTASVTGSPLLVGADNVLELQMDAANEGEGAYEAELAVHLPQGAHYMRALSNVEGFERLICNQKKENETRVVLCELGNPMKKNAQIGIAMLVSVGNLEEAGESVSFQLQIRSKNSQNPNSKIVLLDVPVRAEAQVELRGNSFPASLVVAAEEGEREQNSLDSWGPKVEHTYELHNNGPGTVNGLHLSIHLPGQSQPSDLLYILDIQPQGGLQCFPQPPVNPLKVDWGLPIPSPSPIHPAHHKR
T1 sequence (P08514 891-1039 limits assumed): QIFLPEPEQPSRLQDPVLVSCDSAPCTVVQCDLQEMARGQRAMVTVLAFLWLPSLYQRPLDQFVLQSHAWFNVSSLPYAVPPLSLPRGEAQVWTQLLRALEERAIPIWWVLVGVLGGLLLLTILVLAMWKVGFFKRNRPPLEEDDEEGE

Ki | SMILES
30 nM | N=C(N)Nc1ccc(C2NC(=O)N(CC(=O)N[C@@H](CC(=O)O)C(=O)N[C@H](C(=O)O)c3ccccc3)C2=O)cc1 (stereo partly drawn)

Tested on: not listed separately
Test: terminal elimination half-life for the compound was evaluated after oral administration of a dose of 1 mg/kg in a group of eight conscious dogs
Format: ADME, organism-based, Canis lupus familiaris
Design: dose 1 mg/kg, route oral
Conditions: dog, in vivo

half-life | SMILES
9.9 h | CCOC(=O)C[C@H](NC(=O)CN1C(=O)N[C@@](C)(c2ccc(C(=N)N)cc2)C1=O)c1ccccc1.O=C(O)/C=C\C(=O)O [CARAFIBAN MALEATE]

Target: T1, Integrin alpha-IIb/beta-3
Test: Inhibition of 125 I-fibrinogen binding to ADP-activated gel filtered human platelets
Conditions: not given

Ki | SMILES
120 nM | N=C(N)NCCC[C@@H]1NC(=O)N(CC(=O)N[C@@H](CC(=O)O)C(=O)N[C@H](C(=O)O)c2ccccc2)C1=O
